Earlier results as cited in patent US11612669B2, “Disinfection method and apparatus” (University of Washington, priority 2020, dated 2023).

Test system: microbes, viruses, and bacteria in blood plasma
Conditions: one micromolar solution, white light at 45,000 lux for more than one hour

CN(C)c1ccc2nc3ccc(=[N+](C)C)cc-3sc2c1 [methylene blue]
inactivation of microbes, viruses, and bacteria: can inactivate microbes, viruses, and bacteria
